The values that follow come from ChEMBL document CHEMBL1201862, “PubChem BioAssay data set” (2004).

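Where inhibition never reached the appropriate level, the endpoint shown equals the highest concentration tested. Otherwise, values were interpolated linearly from a five-concentration, 48-hour dose response in 96-well plates. Here, GI50 denotes the concentration required for 50% inhibition of growth.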 Activity calls are given as the source filed them. Cut-off read from the data, not from the text of the source: active = GI50 up to about 1.1 µM and inactive = higher. Where a SMILES comes first, the peptide text is derived from it. The star is where a group is joined. Boc = CC(C)(C)OC(=O)*

Among the test systems are CCRF-CEM; K562; PC-3; HL-60; NCI-H23; OVCAR-5; SR; OVCAR-3; IGROV-1; SK-MEL-28; NCI/ADR-RES; 786-0; HCT-116; NCI-H460; RXF 393; BT-549; HOP-62; Malme-3M; SN12C; Hs-578T.
Holding throughout (assay): NCI-60 cell line screen, 48 h

For `OCC1OC(n2cnc3c(SCc4ccccc4)ncnc32)C(O)C1O` (stereo unspecified), the GI50 is 0.169 µM (active) in the experiment on CCRF-CEM; 3.15 µM (inactive) with K562; 4.94 µM (inactive) in the experiment with PC-3; 1.21 µM (inactive) in the experiment with HL-60; 4.86 µM (inactive) in the experiment with NCI-H23; > 96.2 µM (inactive) in the experiment with OVCAR-5. Moreover, the GI50 in the experiment on SR is 2.9 µM (inactive); in the experiment with OVCAR-3 it was 6.61 µM (inactive); in the experiment on IGROV-1, > 89.1 µM (inactive); in the experiment with SK-MEL-28, > 100 µM (inactive); in the experiment with NCI/ADR-RES, 10.2 µM (inactive); with 786-0, 27.5 µM (inactive). Also, the GI50 with HCT-116 is 5.45 µM (inactive); with NCI-H460 it was > 44.7 µM (inactive); in the experiment with RXF 393, 20.2 µM (inactive); with BT-549, 16.6 µM (inactive); with HOP-62, > 100 µM (inactive); in the experiment on Malme-3M it was > 100 µM (inactive). Besides, in the experiment on SN12C, the GI50 was 7.5 µM (inactive).
Take `COc1cc(OC)c2c(c1OC)OCC(Cc1ccc(O)cc1)C2=O` (stereo unspecified): the GI50 in the experiment with CCRF-CEM is > 25 µM (inactive); with K562, > 25 µM (inactive); in the experiment with PC-3, > 25 µM (inactive); with HL-60, 11.3 µM (inactive); in the experiment on Hs-578T it was > 25 µM (inactive); in the experiment on NCI-H23, > 25 µM (inactive). Further, the GI50 in the experiment on OVCAR-5 was > 25 µM (inactive); with SR, > 25 µM (inactive); with OVCAR-3 it was 21 µM (inactive); in the experiment on IGROV-1, > 25 µM (inactive); in the experiment with SK-MEL-28, > 25 µM (inactive); in the experiment on NCI/ADR-RES it was > 25 µM (inactive). In addition, the GI50 is > 25 µM (inactive) in the experiment on 786-0; > 25 µM (inactive) in the experiment with HCT-116; > 25 µM (inactive) in the experiment on NCI-H460; 20.3 µM (inactive) in the experiment on RXF 393; > 25 µM (inactive) in the experiment with HOP-62; > 25 µM (inactive) with Malme-3M. Also, the GI50 in the experiment on SN12C is > 25 µM (inactive).
`O=C(Cc1ccccc1)NN1C(=O)C(Cl)C1c1ccccc1Cl` (stereo unspecified): the GI50 is 14.1 µM (inactive) in the experiment on CCRF-CEM; 33.7 µM (inactive) in the experiment on K562; 30.1 µM (inactive) with HL-60; 64.1 µM (inactive) in the experiment with NCI-H23; > 100 µM (inactive) in the experiment with OVCAR-5; 23.2 µM (inactive) with SR. Also, the GI50 with OVCAR-3 was > 62.7 µM (inactive); in the experiment on IGROV-1, 39 µM (inactive); in the experiment on SK-MEL-28 it was > 100 µM (inactive); in the experiment with 786-0, 71.8 µM (inactive); with HCT-116, 59.4 µM (inactive); in the experiment on NCI-H460 it was 76 µM (inactive). The GI50 was 48.8 µM (inactive) in the experiment with RXF 393, > 100 µM (inactive) in the experiment with HOP-62, > 100 µM (inactive) in the experiment with Malme-3M and > 75.9 µM (inactive) with SN12C.
For the molecule `CCOC(=O)c1c(NC(=O)c2ccccc2)c(C#N)c2n1CCCCC2`, the GI50 in the experiment with CCRF-CEM, in the experiment with K562, in the experiment on PC-3, in the experiment with HL-60, with Hs-578T and with NCI-H23 was > 100 µM (inactive) each time. Also, the GI50 in the experiment with OVCAR-5, in the experiment on SR, in the experiment with IGROV-1, with SK-MEL-28, in the experiment with NCI/ADR-RES and in the experiment on 786-0 was > 100 µM (inactive) throughout. For the same molecule, the GI50 in the experiment with HCT-116, in the experiment with NCI-H460, in the experiment on RXF 393, in the experiment on HOP-62, with Malme-3M and with SN12C was > 100 µM (inactive) in each case.
As to `CCOC(=O)C1=NC(c2ccccc2)(c2ccccc2)OC1=C(Cl)Cl`, the GI50 in the experiment on CCRF-CEM was 33.6 µM (inactive); in the experiment with K562, 32 µM (inactive); in the experiment with HL-60, 11.9 µM (inactive); with NCI-H23, > 100 µM (inactive); in the experiment on OVCAR-5, 96.2 µM (inactive); in the experiment with SR, 19.8 µM (inactive). Besides, the GI50 was 42.2 µM (inactive) in the experiment with OVCAR-3; > 100 µM (inactive) in the experiment with IGROV-1; > 100 µM (inactive) in the experiment on SK-MEL-28; > 100 µM (inactive) in the experiment on 786-0; 29.2 µM (inactive) in the experiment on HCT-116; 70.6 µM (inactive) with NCI-H460. The GI50 in the experiment with RXF 393 was 0.879 µM (active); in the experiment with HOP-62, > 100 µM (inactive); in the experiment with Malme-3M, 40 µM (inactive); in the experiment on SN12C it was > 100 µM (inactive).
In the case of `COc1cc(C(c2cccc3ccccc23)N2C(=O)CCC2C(=O)NCc2ccccc2)cc(OC)c1OC` (stereo unspecified), the GI50 in the experiment with CCRF-CEM was 93.3 µM (inactive); with HL-60, 57.7 µM (inactive); in the experiment on Hs-578T, 83.6 µM (inactive); in the experiment on NCI-H23, > 100 µM (inactive); in the experiment with OVCAR-5, > 100 µM (inactive); in the experiment with SR it was > 100 µM (inactive). Further, the GI50 in the experiment on OVCAR-3, with IGROV-1, in the experiment on SK-MEL-28, with NCI/ADR-RES, in the experiment on 786-0 and in the experiment on HCT-116 was > 100 µM (inactive) throughout. Besides, the GI50 in the experiment on NCI-H460, in the experiment on RXF 393, with BT-549, with HOP-62, with Malme-3M and with SN12C was > 100 µM (inactive) in each case.
As to `O=C1OC(OCC#CCOC2OC(=O)C(Cl)=C2Cl)C(Cl)=C1Cl` (stereo unspecified), the GI50 was 1.92 µM (inactive) in the experiment on CCRF-CEM; 13.7 µM (inactive) in the experiment on PC-3; 13.2 µM (inactive) in the experiment on Hs-578T; 15.6 µM (inactive) in the experiment with NCI-H23; 16.6 µM (inactive) in the experiment with OVCAR-5; 2 µM (inactive) in the experiment with SR. The GI50 with OVCAR-3 is 13.9 µM (inactive); with IGROV-1 it was 12.9 µM (inactive); in the experiment on SK-MEL-28 it was 15.3 µM (inactive); in the experiment with NCI/ADR-RES, 19.5 µM (inactive); in the experiment on 786-0, 4.86 µM (inactive); in the experiment on HCT-116, 10.2 µM (inactive). Further, the GI50 in the experiment with NCI-H460 was 23.6 µM (inactive); with HOP-62, 13.6 µM (inactive); with SN12C, 17.3 µM (inactive).
Turning to `Cc1ccc(-c2nc(Cc3n[nH]c(-c4ccc(C)cc4)n3)n[nH]2)cc1`, the GI50 in the experiment with CCRF-CEM is > 100 µM (inactive); in the experiment on K562, > 100 µM (inactive); in the experiment with PC-3, > 100 µM (inactive); in the experiment with NCI-H23, 18.3 µM (inactive); in the experiment on OVCAR-5, > 100 µM (inactive); in the experiment on OVCAR-3, > 100 µM (inactive). In addition, the GI50 in the experiment on IGROV-1 is > 100 µM (inactive); in the experiment on SK-MEL-28, > 100 µM (inactive); in the experiment with NCI/ADR-RES it was 29.6 µM (inactive); in the experiment with 786-0, > 100 µM (inactive); with HCT-116, 36.1 µM (inactive); with RXF 393 it was 21.1 µM (inactive). The GI50 is > 100 µM (inactive) with BT-549, 29 µM (inactive) with HOP-62 and > 100 µM (inactive) in the experiment on SN12C.
As to `O=C(/N=c1/[nH]/c(=N/C(=O)c2ccccc2)ss1)c1ccccc1`, the GI50 is 16 µM (inactive) in the experiment with CCRF-CEM; 20.4 µM (inactive) in the experiment with K562; 14.7 µM (inactive) in the experiment with HL-60; 19.3 µM (inactive) in the experiment with NCI-H23; 31.7 µM (inactive) with OVCAR-5; 24 µM (inactive) with SR. For the same molecule, the GI50 in the experiment on OVCAR-3 is 13.1 µM (inactive); in the experiment on IGROV-1 it was 6.64 µM (inactive); with SK-MEL-28 it was 23.9 µM (inactive); in the experiment with 786-0, 25.5 µM (inactive); in the experiment on HCT-116, 28.8 µM (inactive); in the experiment with NCI-H460 it was 16.6 µM (inactive). In addition, the GI50 is 29.7 µM (inactive) in the experiment with RXF 393, 21.9 µM (inactive) in the experiment on HOP-62, 9.89 µM (inactive) in the experiment with Malme-3M and 16.5 µM (inactive) in the experiment with SN12C.
As to `Cc1cnc2[nH]c(-c3cccc(Cl)c3)cc(=O)c2c1`, the GI50 in the experiment with CCRF-CEM was 0.0425 µM (active); in the experiment with K562 it was < 0.0151 µM (active); with HL-60 it was < 0.0176 µM (active); in the experiment with Hs-578T, 0.0266 µM (active); with NCI-H23, 0.375 µM (active); in the experiment on SR, 0.0345 µM (active). The GI50 in the experiment on OVCAR-3 is 0.0216 µM (active); in the experiment on IGROV-1 it was 0.292 µM (active); in the experiment on SK-MEL-28, 0.315 µM (active); in the experiment on NCI/ADR-RES, 0.054 µM (active); in the experiment on 786-0, 0.0547 µM (active); in the experiment on HCT-116, 0.0361 µM (active). The GI50 is 0.0378 µM (active) in the experiment on NCI-H460; 0.0367 µM (active) with RXF 393; 2.54 µM (inactive) in the experiment on BT-549; 0.0282 µM (active) in the experiment on HOP-62; 0.048 µM (active) in the experiment on Malme-3M.
With `COC(=O)C(Cc1c[nH]c2ccccc12)NC(=O)C(Cc1c[nH]c2ccccc12)NC(=O)C(Cc1c[nH]c2ccccc12)NC(=O)C(Cc1c[nH]c2ccccc12)NC(=O)C(Cc1c[nH]c2ccccc12)NC(=O)C(Cc1c[nH]c2ccccc12)NC(=O)C(Cc1c[nH]c2ccccc12)NC(=O)C(Cc1c[nH]c2ccccc12)NC(=O)OC(C)(C)C` (stereo unspecified) (Boc-WWWWWWWW-OMe; configuration not given here), the GI50 is 34.4 µM (inactive) in the experiment with CCRF-CEM; 31.8 µM (inactive) with K562; 65.5 µM (inactive) in the experiment with PC-3; 24.8 µM (inactive) with HL-60; 29 µM (inactive) in the experiment on NCI-H23; 37.8 µM (inactive) in the experiment with OVCAR-5. Further, the GI50 with SR is 59.7 µM (inactive); in the experiment on OVCAR-3, 83.6 µM (inactive); with IGROV-1, 19.8 µM (inactive); in the experiment on SK-MEL-28, 33.3 µM (inactive); in the experiment on 786-0, > 100 µM (inactive); in the experiment with HCT-116, 15.3 µM (inactive). The GI50 was 67.6 µM (inactive) in the experiment on NCI-H460; > 100 µM (inactive) in the experiment with BT-549; > 100 µM (inactive) in the experiment on HOP-62; 53.2 µM (inactive) with Malme-3M; 72.8 µM (inactive) in the experiment with SN12C.
